What was measured:
[1] = biological target: T1, κ-opioid receptor (Homo sapiens (Human), UniProt P41145); assay: κ-opioid receptor [35S]GTPγS functional assay, HEK-293 or CHO cells; type: biochemical; settings: for Emax: relative to U69,593, HEK-293 or CHO cells
Description: κ-Opioid Receptor Functional Assay Procedures: Functional [^35S]GTPγS binding assays were conducted as follows. κ opioid receptor membrane solution was prepared by sequentially adding final concentrations of 0.026 μg/μl κ membrane protein (in-house), 10 μg/mL saponin, 3 μM GDP and 0.20 nM [^35S]GTPγS to binding buffer (100 mM NaCl, 10 mM MgCl2, 20 mM HEPES, pH 7.4) on ice. The prepared membrane solution (190 μl/well) was transferred to 96-shallow well polypropylene plates containing 10 μl of 20× concentrated stock solutions of agonist prepared in DMSO. Plates were incubated for 30 min at a temperature of about 25° C. with shaking. Reactions were terminated by rapid filtration onto 96-well Unifilter GF/B filter plates (Perkin Elmer, Shelton, Conn.) using a 96-well tissue harvester (Packard) and followed by three filtration washes with 200 μl ice-cold binding buffer (10 mM NaH2PO4, 10 mM Na2HPO4, pH 7.4). Filter plates were subsequently dried at 50° C. for 2-3 hours. Fifty μl/well scintillation cocktail (Perkin Elmer, Shelton, Conn.) was added and plates were counted in a Packard Top-Count for 1 min/well.
κ-Opioid Receptor Functional Data: κ GTP EC50 is the concentration of a compound providing 50% of the maximal response for the compound at a κ receptor.
κ GTP Emax (%) is the maximal effect elicited by a compound relative to the effect elicited by U69,593.
In TABLE 2, activity response of certain Compounds of the Invention to the μ-, δ- and κ-opioid receptors was determined as described above for functional assays using HEK-293 or CHO cells.

[2] = biological target: T1, κ-opioid receptor; assay: κ-opioid receptor radioligand dose-displacement binding assay ([3H]-U69,593); settings: binding affinity, [3H]-U69,593 displacement
Description: κ-Opioid Receptor Binding Assay Procedures: Membranes from HEK-293 cells, CHO or U-2 OS cells expressing the recombinant human kappa opioid receptor (κ) were prepared by lysing cells in ice cold hypotonic buffer (2.5 mM MgCl2, 50 mM HEPES, pH 7.4) (10 mL/10 cm dish) followed by homogenization with a tissue grinder/Teflon pestle. Membranes were collected by centrifugation at 30,000×g for 15 min at 4° C. and pellets were resuspended in hypotonic buffer to a final concentration of 1-3 mg/mL. Protein concentrations were determined using the BioRad protein assay reagent with bovine serum albumen as standard, Aliquots of κ receptor membranes were stored at […].
Radioligand dose displacement assays used 0.4 nM [^3H]-U69,593 (GE Healthcare, Piscataway, N.J.; 40 Ci/mmole) with 15 μg membrane protein (recombinant κ opioid receptor expressed in HEK 293 cells; in-house prep) in a final volume of 200 μl binding buffer (5% DMSO, 50 mM Trizma base, pH 7.4). Non-specific binding was determined in the presence of 10 μM unlabeled naloxone or U69,593. All reactions were performed in 96-well polypropylene plates for 1 hour at a temperature of about 25° C. Binding reactions were terminated by rapid filtration onto 96-well Unifilter GF/C filter plates (Perkin Elmer, Shelton, Conn.) presoaked in 0.5% polyethylenimine (Sigma). Harvesting was performed using a 96-well tissue harvester (Perkin Elmer, Shelton, Conn.) followed by five filtration washes with 200 μl ice-cold binding buffer. Filter plates were subsequently dried at 50° C. for 1-2 hours. Fifty μl/well scintillation cocktail (Perkin Elmer, Shelton, Conn.) was added and plates were counted in a Packard Top-Count for 1 min/well.

[3] = biological target: T2, μ-opioid receptor (Homo sapiens (Human), UniProt P35372); assay: μ-opioid receptor radioligand dose-displacement binding assay ([3H]-diprenorphine); settings: binding affinity, [3H]-diprenorphine displacement; read-out: Ki (nM) Opioid Receptor μ
Description: μ-Opioid Receptor Binding Assay Procedures: Radioligand dose-displacement binding assays for μ-opioid receptors used 0.3 nM [^3H]-diprenorphine (Perkin Elmer, Shelton, Conn.), with […] membrane protein/well in a final volume of 500 μl binding buffer (10 mM MgCl2, 1 mM EDTA, 5% DMSO, 50 mM HEPES, pH 7.4). Reactions were carried out in the absence or presence of increasing concentrations of unlabeled naloxone. All reactions were conducted in 96-deep well polypropylene plates for 2 hours at room temperature. Binding reactions were terminated by rapid filtration onto 96-well Unifilter GF/C filter plates (Perkin Elmer, Shelton, Conn.), presoaked in 0.5% polyethylenimine using a 96-well tissue harvester (Perkin Elmer, Shelton, Conn.) followed by performing three filtration washes with 500 μl of ice-cold binding buffer. Filter plates were subsequently dried at 50° C. for 2-3 hours. BetaScint scintillation cocktail (Perkin Elmer, Shelton, Conn.) was added (50 μl/well), and plates were counted using a Packard Top-Count for 1 min/well. The data were analyzed using the one-site competition curve fitting functions in GraphPad PRISM™ v. 3.0 or higher (San Diego, Calif.), or an in-house function for one-site competition curve-fitting.

[4] = biological target: δ-opioid receptor (Homo sapiens (Human), UniProt P41143); assay: δ-opioid receptor radioligand dose-displacement binding assay ([3H]-Naltrindole); settings: binding affinity, [3H]-Naltrindole displacement
Chain of δ-opioid receptor (P41143 whole entry, looked up): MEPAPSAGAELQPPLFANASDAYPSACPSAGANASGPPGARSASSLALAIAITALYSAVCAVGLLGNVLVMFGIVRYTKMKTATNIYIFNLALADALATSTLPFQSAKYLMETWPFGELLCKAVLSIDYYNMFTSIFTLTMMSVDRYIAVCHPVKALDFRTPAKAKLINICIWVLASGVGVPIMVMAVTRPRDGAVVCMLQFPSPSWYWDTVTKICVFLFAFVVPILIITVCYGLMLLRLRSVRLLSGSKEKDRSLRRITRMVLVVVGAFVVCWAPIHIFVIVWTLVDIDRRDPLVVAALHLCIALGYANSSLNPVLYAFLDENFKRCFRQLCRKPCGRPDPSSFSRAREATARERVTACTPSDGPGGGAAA
Description: δ-Opioid Receptor Binding Assay Procedures: δ-Opioid Receptor Binding Assay Procedures were conducted as follows. Radioligand dose-displacement assays used 0.2 nM [^3H]-Naltrindole (Perkin Elmer, Shelton, Conn.; 33.0 Ci/mmole) with 5 μg membrane protein (Perkin Elmer, Shelton, Conn.) in a final volume of 500 μl binding buffer (5 mM MgCl2, 5% DMSO, 50 mM Trizma base, pH 7.4). Non-specific binding was determined in the presence of 25 μM unlabeled naloxone. All reactions were performed in 96-deep well polypropylene plates for 1 hour at a temperature of about 25° C. Binding reactions were terminated by rapid filtration onto 96-well Unifilter GF/C filter plates (Perkin Elmer, Shelton, Conn.) presoaked in 0.5% polyethylenimine (Sigma). Harvesting was performed using a 96-well tissue harvester (Perkin Elmer, Shelton, Conn.) followed by five filtration washes with 500 μl ice-cold binding buffer. Filter plates were subsequently dried at 50° C. for 1-2 hours. Fifty μl/well scintillation cocktail (Perkin Elmer, Shelton, Conn.) was added and plates were counted in a Packard Top-Count for 1 min/well.

[5] = biological target: T2, μ-opioid receptor; assay: μ-opioid receptor [35S]GTPγS functional assay, HEK-293 or CHO cells; type: biochemical; settings: for Emax: relative to DAMGO, HEK-293 or CHO cells
[6] = biological target: ORL-1 receptor (Homo sapiens (Human), UniProt P41146); assay: ORL-1 receptor radioligand binding assay ([3H]-nociceptin); settings: binding affinity, [3H]-nociceptin displacement
Description: ORL-1 Receptor Binding Assay Procedure: Membranes from recombinant HEK-293 cells expressing the human opioid receptor-like receptor (ORL-1) (Perkin Elmer, Shelton, Conn.) were prepared by lysing cells in ice-cold hypotonic buffer (2.5 mM MgCl2, 50 mM HEPES, pH 7.4) (10 ml/10 cm dish) followed by homogenization with a tissue grinder/Teflon pestle. Membranes were collected by centrifugation at 30,000×g for […] at 4° C. and pellets resuspended in hypotonic buffer to a final concentration of 1-3 mg/ml. Protein concentrations were determined using the BioRad protein assay reagent with bovine serum albumen as standard. Aliquots of the ORL-1 receptor membranes were stored at −80° C.
Radioligand binding assays (screening and dose-displacement) used 0.1 nM [^3H]-nociceptin (Perkin Elmer, Shelton, Conn.; 87.7 Ci/mmole) with 12 μg membrane protein in a final volume of 500 μl binding buffer (10 mM MgCl2, 1 mM EDTA, 5% DMSO, 50 mM HEPES, pH 7.4). Non-specific binding was determined in the presence of […] unlabeled nociceptin (American Peptide Company). All reactions were performed in 96-deep well polypropylene plates for 1 h at room temperature. Binding reactions were terminated by rapid filtration onto 96-well Unifilter GF/C filter plates (Perkin Elmer, Shelton, Conn.) presoaked in 0.5% polyethylenimine (Sigma). Harvesting was performed using a 96-well tissue harvester (Perkin Elmer, Shelton, Conn.) followed by three filtration washes with 500 μl ice-cold binding buffer. Filter plates were subsequently dried at 50° C. for 2-3 hours. Fifty μl/well scintillation cocktail (Perkin Elmer, Shelton, Conn.) was added and plates were counted in a Packard Top-Count for 1 min/well. The data from screening and dose-displacement experiments were analyzed using Microsoft Excel and the curve fitting functions in GraphPad PRISM™, v. 3.0 or higher, respectively, or an in-house function for one-site competition curve-fitting.

| Structure (SMILES) | EC50 [1] | Emax [1] | Ki [2] | Ki [3] | Ki [4] | EC50 [5] | Emax [5] | Ki [6] |
| --- | --- | --- | --- | --- | --- | --- | --- | --- |
| COC(=O)c1cc2c([nH]c1=O)C[C@]13CCN(CC4CC4)[C@H](Cc4ccc(OC)cc41)[C@@H]3C2 [Compound 3, (6R,6aR,12aS)-methyl 15-(cyclopropylmethyl)-2-methoxy-10-oxo-6,6a,7,10,11,12-hexahydro-5H-6,12a-(epiminoethano)naphtho[2,1-g]quinoline-9-carboxylate] | 39.1 ± 2.6 nM | 52.3 ± 1.76% | 3.85 ± 1.09 nM | 449 ± 171 nM | 18.9 ± 7.84 nM | 34.9 ± 6.84 nM | 15.7 ± 3.48% |  |
| NC(=O)CNC(=O)c1cc2c([nH]c1=O)C[C@]13CCN(CC4CC4)[C@H](Cc4ccc(O)cc41)[C@@H]3C2 [Compound 21, (6R,6aR,12aS)—N-(2-amino-2-oxoethyl)-15-(cyclopropylmethyl)-2-hydroxy-10-oxo-6,6a,7,10,11,12-hexahydro-5H-6,12a-(epiminoethano)naphtho[2,1-g]quinoline-9-carboxamide] | 4.19 ± 0.79 nM | 41 ± 5.29% |  | 0.59 ± 0.15 nM |  | 1.73 ± 0.41 nM | 23.7 ± 2.19% | 2.04 ± 0.49 nM |
| C[C@H](NC(=O)c1cc2c([nH]c1=O)C[C@]13CCN(CC4CC4)[C@H](Cc4ccc(O)cc41)[C@@H]3C2)C(N)=O [Compound 22, (6R,6aR,12aS)—N—((S)-1-amino-1-oxopropan-2-yl)-15-(cyclopropylmethyl)-2-hydroxy-10-oxo-6,6a,7,10,11,12-hexahydro-5H-6,12a-(epiminoethano)naphtho[2,1-g]quinoline-9-carboxamide] | 9.89 ± 2.4 nM | 36.7 ± 2.73% |  | 0.56 ± 0.11 nM |  | 4.22 ± 1 nM | 30 ± 3.21% | 1.2 ± 0.21 nM |
